The results in this text go back to patent US9951060B2, “2-acylaminothiazole derivative or salt thereof” (ASTELLAS PHARMA INC., priority 2014, dated 2018).

SMILES strings stand for the structures. Where a name gives a salt, the structure may show the parent alone.

For the first series, the target named is human muscarinic M3 receptor (Homo sapiens, UniProt P20309). Description: Test Example 1: muscarinic M3 receptor positive allosteric modulator activity (shift of carbachol concentration-response curve, intracellular Ca2+, FLIPR). The settings on record: test substance 1 μM; carbachol EC50 without / with test substance; CHO-K1 cells expressing human M3.
human muscarinic M3 receptor, sequence (P20309 whole entry): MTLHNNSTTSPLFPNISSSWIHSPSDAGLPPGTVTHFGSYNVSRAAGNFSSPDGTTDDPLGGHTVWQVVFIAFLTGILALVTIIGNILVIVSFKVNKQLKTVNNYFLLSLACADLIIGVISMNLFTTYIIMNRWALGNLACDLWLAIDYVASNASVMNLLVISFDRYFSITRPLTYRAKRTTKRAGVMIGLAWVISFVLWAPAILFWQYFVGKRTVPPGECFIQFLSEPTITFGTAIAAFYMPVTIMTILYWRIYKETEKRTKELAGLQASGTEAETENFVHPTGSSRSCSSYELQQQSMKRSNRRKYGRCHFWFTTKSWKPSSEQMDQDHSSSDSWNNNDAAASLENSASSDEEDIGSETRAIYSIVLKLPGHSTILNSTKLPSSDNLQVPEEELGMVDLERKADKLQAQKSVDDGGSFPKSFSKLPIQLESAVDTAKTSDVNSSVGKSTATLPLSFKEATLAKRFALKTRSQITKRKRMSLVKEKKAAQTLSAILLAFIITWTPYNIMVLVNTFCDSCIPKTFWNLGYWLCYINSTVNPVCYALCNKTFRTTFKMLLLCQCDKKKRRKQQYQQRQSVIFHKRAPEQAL
Text: Test Example 1: Evaluation of Muscarinic M3 Receptor Positive Allosteric Modulator Activity
a) Construction of Vector Expressing Human Muscarinic M3 Receptor
A human muscarinic M3 receptor gene (GenBank Accession No.: NM_000740.2) was introduced into an expression vector pcDNA3.1™ (Life Technologies).
b) Construction of Cells Stably Expressing Human Muscarinic M3 Receptor
A vector expressing a human muscarinic M3 receptor was introduced into a CHO—K1 cell (ATCC No.: CCL-61). The introduction was carried out according to the attached instructions, using a transfection reagent, Lipofectoamine (registered trademark) 2000 Reagent (Life Technologies). The cells were incubated in an alpha Modified Eagle Minimum Essential Medium (α-MEM) including 2 mM glutamine, 10% fetal bovine serum, and 2.0 mg/mL Geneticin (registered trademark) (Life Technologies) for 4 weeks to acquire a drug-resistant clone.
c) Measurement of Intracellular Ca^2+ Concentration
The cells obtained in b) above were suspended in an α-MEM including 2 mM glutamine, 10% fetal bovine serum, and 0.2 mg/mL Geneticin (registered trademark) to the amount from 1.2 to 1.5×10^4 cells/well the day before the experiment, dispensed into a 384-well plate (Model No. 355962, BD Biosciences), and incubated overnight at 37° C. and 5% CO2. The medium was replaced with a loading buffer (an assay buffer (Hank's balanced salt solution (HBSS), 1 g/L BSA, 20 mM HEPES (pH 7.5), and 2.5 mM probenecid), including 3.1 μM Fluo 4-AM (Dojindo Laboratories) and incubated for about 2 hours at room temperature. Thereafter, the cells were washed with a plate washer ELx405™ (BIO-TEK Instrument, Inc.) set with the assay buffer, and set in an intracellular Ca^2+ concentration measuring system (FLIPR^tetra (registered trademark), Molecular Device Co.). The test substances (final concentration of 1 μM or 10 μM) and carbachol (Sigma, final concentration of 0.0024 nM to 10 μM) which had each been dissolved in the assay buffer in advance were set in a FLIPR^tetra (registered trademark). The test substances were added to the cells in the device and after about 5 minutes, carbachol was added to the cells. An increase rate of the intracellular Ca^2+ concentration by carbachol was measured (excitement wavelength of 470 nm to 495 nm and a fluorescence wavelength of 515 nm to 575 nm).
For the muscarinic M3 receptor-positive allosteric modulator activity, a shift toward a lower concentration side of a carbachol concentration-response curve by the test substance was used as an index. […] For example, when the EC50 value of carbachol in the absence of the test substance was 0.1 μM and the EC50 value of carbachol in the presence of the test substance was 0.01 μM, the value of the muscarinic M3 receptor-positive allosteric modulator activity becomes 10, showing that the test substance causes a 10-fold shift in the EC50 value toward to the low concentration side.
For the compound `CCC[C@@H]1CCCN1Cc1sc(NC(=O)c2cnc(N3CCN(CCC(=O)[O-])CC3)cn2)nc1-c1cccc(C(F)(F)F)c1.[Na+]` [Example 124], the “muscarinic M3 receptor-positive allosteric modulator activity, 1 μM (-fold shift)” value is 28 -fold shift.

For `C[C@@H]1CCCN1Cc1sc(NC(=O)c2cnc(N3CCN(CCC(=O)[O-])CC3)cn2)nc1-c1cc(C#N)cc(C(F)(F)F)c1.[Na+]` [Example 34], the “muscarinic M3 receptor-positive allosteric modulator activity, 1 μM (-fold shift)” value is given as 18 -fold shift.

The series is the same for the next values; noted with them: test substance 10 μM; carbachol EC50 without / with test substance; CHO-K1 cells expressing human M3.
`CCC[C@@H]1CCCN1Cc1sc(NC(=O)c2cnc(N3CCN(CCC(=O)[O-])CC3)cn2)nc1-c1cccc(C(F)(F)F)c1.[Na+]` [Example 124]: the “muscarinic M3 receptor-positive allosteric modulator activity, 10 μM (-fold shift)” value is 101 -fold shift. As to `C[C@@H]1CCCN1Cc1sc(NC(=O)c2cnc(N3CCN(CCC(=O)[O-])CC3)cn2)nc1-c1cc(C#N)cc(C(F)(F)F)c1.[Na+]` [Example 34], the “muscarinic M3 receptor-positive allosteric modulator activity, 10 μM (-fold shift)” value is on record as 116 -fold shift.

A further series relates to pelvic nerve stimulation-induced elevation of intravesical pressure. Description: Test Example 4: effect on pelvic nerve stimulation-induced elevation of intravesical pressure in anesthetized rats. The class given is in vivo, rat. As to conditions: 3 mg/kg intravenous; maximum effect within one hour; anesthetized SD female rats; pre-treatment = 100%. On the procedure:
Test Example 4: Effect on Pelvic Nerve Stimulation-Induced Elevation of Intravesical Pressure in Anesthetized Rats
The effect of the Example compounds of the present invention in the pelvic nerve electrical stimulation-induced elevation of intravesical pressure using rats as an action of nerve stimulation-dependent bladder contraction in vivo was measured by the following method. That is, SD female rats (Japan SLC, Inc.) were used and its lower abdomen was dissected at the midline under pentobarbital anesthesia (50 mg/kg ip). After ligating and cutting the ureter on both sides, a cannula (PE-50) for measuring the intravesical pressure was inserted into the bladder from the external urethral opening and fixed by a clip. After injecting about 200 μL of saline through the cannula that had been inserted into the bladder, the other side was connected to a pressure transducer to measure the intravesical pressure. Under a stereoscopic microscope observation, the pelvic nerve in the vicinity of the bladder was peeled and an electrode for nerve stimulation (unique Medical) was placed. The abdominal cavity was filled with mineral oil (MP BIOMEDICALS). After placing in a post-operative stabilization period, the pelvic nerve was subjected to electrical stimulation (stimulation voltage: 10 V, stimulation frequency: 8 Hz, pulse width: 0.3 msec, and stimulation time: 10 seconds) to elicit the elevation of intravesical pressure, using an electrical stimulator (Nihon Kohden). By repeating the electrical stimulation at an interval of 2 minutes while adjusting the voltage, the voltage was adjusted to elicit about 50% to 70% elevation of intravesical pressure elicited at 10 V. Thereafter, by repeating the electrical stimulation at an interval of 10 minutes, the increase in the intravesical pressure by electrical stimulation was stabilized three times or more, and the test substance (an administration amount of 3 mg/kg) was then administered from the catheter detained in the vein at a volume of 1 mL/kg, thus measuring an effect of the elevation of the intravesical pressure of the test substance for 1 hour. The test substance was dissolved in water supplemented with 10% dimethylsulfoxide and 10% Cremophor.
The response was applied to a personal computer through a PowerLab (registered trademark) and analyzed by LabChart (registered trademark). The AUC of each elevation of the intravesical pressure was calculated, the intravesical pressure elevation rate (% of pre) after the treatment with the test substance was calculated by taking an average value of the values measured three times before the treatment with the test substance as 100%, and the maximum effect during a period within one hour after administration of the compound was considered as the effect of the test substance.
The elevation rates (% of pre) of the intravesical pressure when some Example compounds were administered at 3 mg/kg are shown in Table 4.
In the case of `C[C@@H]1CCCN1Cc1sc(NC(=O)c2cnc(N3CCN(CC(=O)O)CC3)cn2)nc1-c1cc(Cl)cc(C(F)(F)F)c1` [Example 13], the “Increase rate (% of pre) of intravesical pressure” value was 132 % of pre. As for `C[C@@H]1CCCN1Cc1sc(NC(=O)c2cnc(N3CCN(CCC(=O)O)[C@@H](C)C3)cn2)nc1-c1cc(C(F)(F)F)cs1` [Example 95], the “Increase rate (% of pre) of intravesical pressure” value is recorded as 239 % of pre.

For `COc1c(Cl)cc(-c2nc(NC(=O)c3cnc(N4CCN(CCC(=O)O)CC4)cn3)sc2CN2CCC[C@H]2C)cc1Cl` [Example 43], the “Increase rate (% of pre) of intravesical pressure” value was 125 % of pre. Consider `COc1ccc(-c2nc(NC(=O)c3cnc(N4CCN(CCC(=O)O)[C@@H](C)C4)cn3)sc2CN2CCC[C@H]2C)cc1C(F)(F)F` [Example 10], for which the “Increase rate (% of pre) of intravesical pressure” value is listed as 145 % of pre. Still for that read-out and setting: the figure for `C[C@@H]1CCCN1Cc1sc(NC(=O)c2cnc(N3CCN(CC(=O)O)CC3)cn2)nc1-c1cc(Cl)cs1` [Example 51] is 223 % of pre. For `CCC[C@@H]1CCCN1Cc1sc(NC(=O)c2cnc(N3CCN(CCC(=O)[O-])CC3)cn2)nc1-c1cccc(C(F)(F)F)c1.[Na+]` [Example 124], the “Increase rate (% of pre) of intravesical pressure” value is 143 % of pre. For `COc1c(F)cc(-c2nc(NC(=O)c3cnc(N4CCN(CCC(=O)O)CC4)cn3)sc2CN2CCC[C@H]2C)cc1C(F)(F)F` [Example 72], the “Increase rate (% of pre) of intravesical pressure” value is on record as 155 % of pre.

`CC(C(=O)O)N1CCN(c2cnc(C(=O)Nc3nc(-c4cc(F)cc(C(F)(F)F)c4)c(CN4CCC[C@H]4C)s3)cn2)CC1` (stereo partly shown) [Example 64]: the “Increase rate (% of pre) of intravesical pressure” value was 135 % of pre. On the same count and under the same terms, under `C[C@@H]1CCCN1Cc1sc(NC(=O)c2cnc(N3CCN(CCC(=O)O)[C@@H](C)C3)cn2)nc1-c1cc(Cl)cs1` [Example 142] stands 199 % of pre. Turning to `C[C@@H]1CCCN1Cc1sc(NC(=O)c2cnc(N3CCN(CCC(=O)O)C[C@H]3C)cn2)nc1-c1cc(C(F)(F)F)cs1` [Example 3, 3-[(3R)-3-methyl-4-{5-[(5-{[(2R)-2-methylpyrrolidin-1-yl]methyl}-4-[4-(trifluoromethyl)thiophen-2-yl]-1,3-thiazol-2-yl)carbamoyl]pyrazin-2-yl}piperazin-1-yl]propanoic acid dihydrochloride], the “Increase rate (% of pre) of intravesical pressure” value is reported as 251 % of pre. In the case of `CCN(CC)Cc1sc(NC(=O)c2cnc(N3CCN(CCC(=O)O)CC3)cn2)nc1-c1cc(F)cc(C(F)(F)F)c1` [Example 109], the “Increase rate (% of pre) of intravesical pressure” value is 180 % of pre.

For `C[C@@H]1CCCN1Cc1sc(NC(=O)c2cnc(N3CCN(CCC(=O)O)CC3)cn2)nc1-c1ccc(Cl)c(C(F)(F)F)c1` [Example 15], the “Increase rate (% of pre) of intravesical pressure” value is 142 % of pre.

For `CC[C@@H]1CCCN1Cc1sc(NC(=O)c2cnc(N3CCN(CCC(=O)O)C[C@H]3C)cn2)nc1-c1ccc(OC(C)C)c(C(F)(F)F)c1` [Example 135], the “Increase rate (% of pre) of intravesical pressure” value is listed as 168 % of pre. For `CC[C@@H]1CCCN1Cc1sc(NC(=O)c2cnc(N3CCN(CCC(=O)O)CC3)cn2)nc1-c1ccc(OC)c(C(F)(F)F)c1` [Example 42], the “Increase rate (% of pre) of intravesical pressure” value is 149 % of pre.

For `CC[C@@H]1CCCN1Cc1sc(NC(=O)c2cnc(N3CCN(CCC(=O)O)C[C@@H]3C)cn2)nc1-c1cc(Cl)cs1` [Example 28], the “Increase rate (% of pre) of intravesical pressure” value is reported as 184 % of pre. Turning to `C[C@@H]1CCCN1Cc1sc(NC(=O)c2cnc(N3CCN(CCC(=O)O)CC3)cn2)nc1-c1cc(C2CC2)cc(C(F)(F)F)c1` [Example 67], the “Increase rate (% of pre) of intravesical pressure” value is listed as 126 % of pre. `CCOc1ccc(-c2nc(NC(=O)c3cnc(N4CCN(CCC(=O)O)C[C@H]4C)cn3)sc2CN2CCC[C@H]2CC)cc1C(F)(F)F` [Example 133]: the “Increase rate (% of pre) of intravesical pressure” value is on record as 150 % of pre.

For `C[C@@H]1CCCN1Cc1sc(NC(=O)c2cnc(N3CCN(CC(=O)O)C[C@H]3C)cn2)nc1-c1cc(F)cc(C(F)(F)F)c1` [Example 141], the “Increase rate (% of pre) of intravesical pressure” value is 175 % of pre.

As for `C[C@@H]1CCCN1Cc1sc(NC(=O)c2cnc(N3CCN(CCC(=O)O)CC3)cn2)nc1-c1ccc(F)c(C(F)(F)F)c1` [Example 60], the “Increase rate (% of pre) of intravesical pressure” value is given as 130 % of pre. In the case of `C[C@@H]1CCCN1Cc1sc(NC(=O)c2cnc(N3CCN(CCCC(=O)O)CC3)cn2)nc1-c1cc(F)cc(C(F)(F)F)c1` [Example 21], the “Increase rate (% of pre) of intravesical pressure” value is 155 % of pre.

On to `C[C@@H]1CCCN1Cc1sc(NC(=O)c2cnc(N3CCN(CCC(=O)[O-])CC3)cn2)nc1-c1cc(C#N)cc(C(F)(F)F)c1.[Na+]` [Example 34], for which the “Increase rate (% of pre) of intravesical pressure” value was 134 % of pre. Regarding `C[C@@H]1CCCN1Cc1sc(NC(=O)c2cnc(N3CCN(CC(=O)O)CC3)cn2)nc1-c1ccc(F)c(C(F)(F)F)c1` [Example 61], the “Increase rate (% of pre) of intravesical pressure” value is listed as 129 % of pre. Take `COc1cc(-c2nc(NC(=O)c3cnc(N4CCN(CCC(=O)O)CC4)cn3)sc2CN2CCC[C@H]2C)cc(C(F)(F)F)c1` [Example 52]: the “Increase rate (% of pre) of intravesical pressure” value was 129 % of pre. Take `C[C@@H]1CC[C@@H](C)N1Cc1sc(NC(=O)c2cnc(N3CCN(CCC(=O)O)CC3)cn2)nc1-c1cc(F)cc(C(F)(F)F)c1` [Example 119]: the “Increase rate (% of pre) of intravesical pressure” value was 173 % of pre.

Regarding `C[C@@H]1CCCN1Cc1sc(NC(=O)c2cnc(N3CCN(CCC(=O)O)CC3)cn2)nc1-c1cc(Cl)cs1` [Example 82], the “Increase rate (% of pre) of intravesical pressure” value is reported as 138 % of pre.

On to `Cc1cc(OC(F)(F)F)cc(-c2nc(NC(=O)c3cnc(N4CCN(C(C)C(=O)O)CC4)cn3)sc2CN2CCC[C@H]2C)c1` (stereo partly shown) [Example 48], for which the “Increase rate (% of pre) of intravesical pressure” value is 121 % of pre.

As for `C[C@@H]1CCCN1Cc1sc(NC(=O)c2cnc(N3CCN(CCC(=O)O)CC3)cn2)nc1-c1cc(Cl)cc(C(F)(F)F)c1` [Example 11], the “Increase rate (% of pre) of intravesical pressure” value is on record as 132 % of pre. `CC[C@@H]1CCCN1Cc1sc(NC(=O)c2cnc(N3CCN(CCC(=O)O)[C@H](C)C3)cn2)nc1-c1cc(Cl)cs1` [Example 143]: the “Increase rate (% of pre) of intravesical pressure” value is 172 % of pre. Same read-out and setting: the figure for `C[C@@H]1CCCN1Cc1sc(NC(=O)c2cnc(N3CCN(CCC(=O)O)CC3)cn2)nc1-c1cc(F)cc(C(F)(F)F)c1` [Example 49] is 172 % of pre.

`Cc1cc(OC(F)(F)F)cc(-c2nc(NC(=O)c3cnc(N4CCN(CCC(=O)O)CC4)cn3)sc2CN2CCC[C@H]2C)c1` [Example 46]: the “Increase rate (% of pre) of intravesical pressure” value is 126 % of pre. Turning to `CC[C@@H]1CCCN1Cc1sc(NC(=O)c2cnc(N3CCN(CCC(=O)O)CC3)cn2)nc1-c1cccc(C(F)(F)F)c1` [Example 65], the “Increase rate (% of pre) of intravesical pressure” value is recorded as 128 % of pre. As for `C[C@@H]1CCCN1Cc1sc(NC(=O)c2cnc(N3CCN(CCC(=O)O)C[C@H]3C)cn2)nc1-c1cc(F)cc(C(F)(F)F)c1` [Example 140], the “Increase rate (% of pre) of intravesical pressure” value was 148 % of pre. Regarding `C[C@@H]1CCCN1Cc1sc(NC(=O)c2cnc(N3CCN(CCC(=O)O)CC3)cn2)nc1-c1cc(Cl)cs1` [Example 50], the “Increase rate (% of pre) of intravesical pressure” value is given as 207 % of pre.
